Results taken from patent US10485235B2, “Aryloxypyrimidinyl ethers as herbicides” (FMC Corporation, priority 2015, dated 2019).

Legend:
Assay type in all cases: in vivo
kochia (Kochia scoparia) [1] = assay: Test A postemergence, kochia; conditions: postemergence, 0 to 100 scale, 0 is no effect, 100 is complete control, approximately 10 days
Text: (§1) Seeds of plant species selected from barnyardgrass (Echinochloa crus-galli), kochia (Kochia scoparia), ragweed (common ragweed, Ambrosia elatior), ryegrass, Italian (Italian ryegrass, Lolium multiflorum), foxtail, giant (giant foxtail, Setaria faberii), and pigweed (Amaranthus retroflexus), were planted into a blend of loam soil and sand and treated preemergence with a directed soil spray using test chemicals formulated in a non-phytotoxic solvent mixture which included a surfactant.
(§2) At the same time, plants selected from these weed species and also wheat (Triticum aestivum), corn (Zea mays), blackgrass (Alopecurus myosuroides), and galium (catchweed bedstraw, Galium aparine), were planted in pots containing the same blend of loam soil and sand and treated with postemergence applications of test chemicals formulated in the same manner. Plants ranged in height from 2 to 10 cm and were in the one- to two-leaf stage for the postemergence treatment. Treated plants and untreated controls were maintained in a greenhouse for approximately 10 days, after which time all treated plants were compared to untreated controls and visually evaluated for injury. Plant response ratings, summarized in Table A, are based on a 0 to 100 scale where 0 is no effect and 100 is complete control. A dash (—) response means no test result.

rice (Oryza sativa) = assay: Test B flooded paddy test, rice; conditions: 250 g ai/ha, Flood; visual rating after 13 to 15 days; scale 0 to 100, 0 is no effect, 100 is complete control
Experimental: (§3) Plant species in the flooded paddy test selected from rice (Oryza sativa), sedge, umbrella (small-flower umbrella sedge, Cyperus difformis), ducksalad (Heteranthera limosa), and barnyardgrass (Echinochloa crus-galli) were grown to the 2-leaf stage for testing. At time of treatment, test pots were flooded to 3 cm above the soil surface, treated by application of test compounds directly to the paddy water, and then maintained at that water depth for the duration of the test. Treated plants and controls were maintained in a greenhouse for 13 to 15 days, after which time all species were compared to controls and visually evaluated. Plant response ratings, summarized in Table B, are based on a scale of 0 to 100 where 0 is no effect and 100 is complete control. A dash (—) response means no test result.

[2] = system: ducksalad (Heteranthera limosa); assay: Test B flooded paddy test, ducksalad; conditions: 250 g ai/ha, Flood; visual rating after 13 to 15 days; scale 0 to 100, 0 is no effect, 100 is complete control
Experimental: as §3

[3] = system: galium (catchweed bedstraw, Galium aparine); assay: Test A postemergence, galium; conditions: postemergence, 0 to 100 scale, 0 is no effect, 100 is complete control, approximately 10 days
Text: as §1, §2

kochia (Kochia scoparia) [4] = assay: Test A preemergence, kochia; conditions: Preemergence, 0 to 100 scale (0 no effect, 100 complete control)
Text: as §1, §2

[5] = system: barnyardgrass (Echinochloa crus-galli); assay: Test A preemergence, barnyardgrass; conditions: Preemergence, 0 to 100 scale (0 no effect, 100 complete control)
Text: as §1, §2

[6] = system: ragweed (common ragweed, Ambrosia elatior); assay: Test A postemergence, ragweed; conditions: postemergence, 0 to 100 scale, 0 is no effect, 100 is complete control, approximately 10 days
Text: as §1, §2

corn (Zea mays) = assay: Test A postemergence, corn; conditions: postemergence, 0 to 100 scale, 0 is no effect, 100 is complete control, approximately 10 days
Text: as §1, §2

[7] = system: wheat (Triticum aestivum); assay: Test A postemergence, wheat; conditions: postemergence, 0 to 100 scale, 0 is no effect, 100 is complete control, approximately 10 days
Text: as §1, §2

[8] = system: ragweed (common ragweed, Ambrosia elatior); assay: Test A preemergence, ragweed; conditions: Preemergence, 0 to 100 scale (0 no effect, 100 complete control)
Text: as §1, §2

[9] = system: ryegrass, Italian (Italian ryegrass, Lolium multiflorum); assay: Test A postemergence, Italian ryegrass; conditions: postemergence, 0 to 100 scale, 0 is no effect, 100 is complete control, approximately 10 days
Text: as §1, §2

[10] = system: sedge, umbrella (small-flower umbrella sedge, Cyperus difformis); assay: Test B flooded paddy test, umbrella sedge; conditions: 250 g ai/ha, Flood; visual rating after 13 to 15 days; scale 0 to 100, 0 is no effect, 100 is complete control
Experimental: as §3

[11] = system: barnyardgrass (Echinochloa crus-galli); assay: Test A postemergence, barnyardgrass; conditions: postemergence, 0 to 100 scale, 0 is no effect, 100 is complete control, approximately 10 days
Text: as §1, §2

[12] = system: foxtail, giant (giant foxtail, Setaria faberii); assay: Test A postemergence, giant foxtail; conditions: postemergence, 0 to 100 scale, 0 is no effect, 100 is complete control, approximately 10 days
Text: as §1, §2

[13] = system: pigweed (Amaranthus retroflexus); assay: Test A preemergence, pigweed; conditions: Preemergence, 0 to 100 scale (0 no effect, 100 complete control)
Text: as §1, §2

[14] = system: barnyardgrass (Echinochloa crus-galli); assay: Test B flooded paddy test, barnyardgrass; conditions: 250 g ai/ha, Flood; visual rating after 13 to 15 days; scale 0 to 100, 0 is no effect, 100 is complete control
Experimental: as §3

[15] = system: pigweed (Amaranthus retroflexus); assay: Test A postemergence, pigweed; conditions: postemergence, 0 to 100 scale, 0 is no effect, 100 is complete control, approximately 10 days
Text: as §1, §2

[16] = system: foxtail, giant (giant foxtail, Setaria faberii); assay: Test A preemergence, giant foxtail; conditions: Preemergence, 0 to 100 scale (0 no effect, 100 complete control)
Text: as §1, §2

[17] = system: blackgrass (Alopecurus myosuroides); assay: Test A postemergence, blackgrass; conditions: postemergence, 0 to 100 scale, 0 is no effect, 100 is complete control, approximately 10 days
Text: as §1, §2

[18] = system: ryegrass, Italian (Italian ryegrass, Lolium multiflorum); assay: Test A preemergence, Italian ryegrass; conditions: Preemergence, 0 to 100 scale (0 no effect, 100 complete control)
Text: as §1, §2

Structure (SMILES)	Plant response rating, Kochia (kochia (Kochia scoparia) [1]; 125 g ai/ha)	Plant response rating, Rice (rice (Oryza sativa))	Plant response rating, Ducksalad [2]	Plant response rating, Galium ([3]; 125 g ai/ha)	Plant response rating, Kochia (kochia (Kochia scoparia) [4]; 125 g ai/ha)	Plant response rating, Barnyardgrass ([5]; 125 g ai/ha)	Plant response rating, Ragweed ([6]; 125 g ai/ha)	Plant response rating, Corn (corn (Zea mays); 125 g ai/ha)	Plant response rating, Wheat ([7]; 125 g ai/ha)	Plant response rating, Ragweed ([8]; 125 g ai/ha)	Plant response rating, Ryegrass, Italian ([9]; 125 g ai/ha)	Plant response rating, Sedge, Umbrella [10]	Plant response rating, Barnyardgrass ([11]; 125 g ai/ha)	Plant response rating, Foxtail, Giant ([12]; 125 g ai/ha)	Plant response rating, Pigweed ([13]; 125 g ai/ha)	Plant response rating, Barnyardgrass [14]	Plant response rating, Pigweed ([15]; 125 g ai/ha)	Plant response rating, Foxtail, Giant ([16]; 125 g ai/ha)	Plant response rating, Blackgrass ([17]; 125 g ai/ha)	Plant response rating, Ryegrass, Italian ([18]; 125 g ai/ha)	also measured
FC(F)(F)CCCCOc1c(Br)cccc1Oc1ncc(Cl)cn1 [Compound 33]	90	0	30	90	20	50	10	20	10	0	20	95	60	60	90	0	100	100	40	20	Plant response rating, Kochia (kochia (Kochia scoparia) [1]; 31 g ai/ha): 50; Plant response rating, Galium ([3]; 31 g ai/ha): 50; Plant response rating, Kochia (kochia (Kochia scoparia) [4]; 31 g ai/ha): 0; Plant response rating, Barnyardgrass ([5]; 31 g ai/ha): 10; Plant response rating, Ragweed ([6]; 31 g ai/ha): 0; Plant response rating, Corn (corn (Zea mays); 31 g ai/ha): 10; Plant response rating, Wheat ([7]; 31 g ai/ha): 0; Plant response rating, Ragweed ([8]; 31 g ai/ha): 0; Plant response rating, Ryegrass, Italian ([9]; 31 g ai/ha): 0; Plant response rating, Barnyardgrass ([11]; 31 g ai/ha): 10; Plant response rating, Foxtail, Giant ([12]; 31 g ai/ha): 20; Plant response rating, Pigweed ([13]; 31 g ai/ha): 10; Plant response rating, Pigweed ([15]; 31 g ai/ha): 80; Plant response rating, Foxtail, Giant ([16]; 31 g ai/ha): 60; Plant response rating, Blackgrass ([17]; 31 g ai/ha): 10; Plant response rating, Ryegrass, Italian ([18]; 31 g ai/ha): 0
Cc1cccc(Oc2ncc(Cl)cn2)c1OCCC(F)(F)F [Compound 64]	20	20	85	0	0	60	0	10	0	0	0	90	10	10	100	0	30	20	10	0	Plant response rating, Kochia (kochia (Kochia scoparia) [1]; 31 g ai/ha): 10; Plant response rating, Galium ([3]; 31 g ai/ha): 0; Plant response rating, Kochia (kochia (Kochia scoparia) [4]; 31 g ai/ha): 0; Plant response rating, Barnyardgrass ([5]; 31 g ai/ha): 10; Plant response rating, Ragweed ([6]; 31 g ai/ha): 0; Plant response rating, Corn (corn (Zea mays); 31 g ai/ha): 0; Plant response rating, Wheat ([7]; 31 g ai/ha): 0; Plant response rating, Ragweed ([8]; 31 g ai/ha): 0; Plant response rating, Ryegrass, Italian ([9]; 31 g ai/ha): 0; Plant response rating, Barnyardgrass ([11]; 31 g ai/ha): 0; Plant response rating, Foxtail, Giant ([12]; 31 g ai/ha): 0; Plant response rating, Pigweed ([13]; 31 g ai/ha): 0; Plant response rating, Pigweed ([15]; 31 g ai/ha): 20; Plant response rating, Foxtail, Giant ([16]; 31 g ai/ha): 0; Plant response rating, Blackgrass ([17]; 31 g ai/ha): 0; Plant response rating, Ryegrass, Italian ([18]; 31 g ai/ha): 0
FC(F)COc1c(Br)cccc1Oc1ncc(Cl)cn1 [Compound 17]	100	0	85	30	90	80	0	20	0	0	0	80	20	40	100	0	100	100	10	10	Plant response rating, Kochia (kochia (Kochia scoparia) [1]; 500 g ai/ha): 100; Plant response rating, Galium ([3]; 500 g ai/ha): 80; Plant response rating, Kochia (kochia (Kochia scoparia) [4]; 500 g ai/ha): 100; Plant response rating, Barnyardgrass ([5]; 500 g ai/ha): 100; Plant response rating, Ragweed ([6]; 500 g ai/ha): 40; Plant response rating, Corn (corn (Zea mays); 500 g ai/ha): 50; Plant response rating, Wheat ([7]; 500 g ai/ha): 20; Plant response rating, Ragweed ([8]; 500 g ai/ha): 30; Plant response rating, Ryegrass, Italian ([9]; 500 g ai/ha): 70; Plant response rating, Barnyardgrass ([11]; 500 g ai/ha): 90; Plant response rating, Foxtail, Giant ([12]; 500 g ai/ha): 100; Plant response rating, Pigweed ([13]; 500 g ai/ha): 100; Plant response rating, Pigweed ([15]; 500 g ai/ha): 100; Plant response rating, Foxtail, Giant ([16]; 500 g ai/ha): 100; Plant response rating, Blackgrass ([17]; 500 g ai/ha): 90; Plant response rating, Ryegrass, Italian ([18]; 500 g ai/ha): 70
